We go through eight compounds from PubChem BioAssay (NCI).

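Cultured in 96-well plates, cells were exposed to test compound for 48 hours across five concentrations. The concentration for 50% growth inhibition is given as GI50. TGI denotes the concentration required for complete inhibition of growth.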

Some test systems named below: A498 renal; MDA-MB-231 breast; NCI-H522 lung; RPMI-8226 leukemia; SK-MEL-28 melanoma; SNB-75 CNS; SW-620 colon; U251 CNS; UACC-62 melanoma; UO-31 renal.
Holding throughout (assay): NCI tumour cell line growth inhibition, 48 h

Consider `COC(=O)c1c[nH]c2cc(OC(C)C)c(OC(C)C)cc2c1=O`, for which the GI50 in the assay on A498 renal, with MDA-MB-231 breast, with NCI-H522 lung, in the assay with RPMI-8226 leukemia, in the assay on SK-MEL-28 melanoma and in the assay with SNB-75 CNS was above 100 µM each time. In addition, the GI50 with SW-620 colon, in the assay with U251 CNS, with UACC-62 melanoma and in the assay with UO-31 renal was above 100 µM in each case. Moreover, the TGI with A498 renal, with MDA-MB-231 breast, in the assay on NCI-H522 lung, in the assay with RPMI-8226 leukemia, in the assay with SK-MEL-28 melanoma and with SNB-75 CNS was above 100 µM in each case. Moreover, the TGI with SW-620 colon, in the assay with U251 CNS, in the assay on UACC-62 melanoma and with UO-31 renal was above 100 µM each time.

With `Cc1ccc(N(C=O)c2c([N+](=O)[O-])cc([N+](=O)[O-])c3c2=[N+]([O-])CN=3)cc1`, the TGI in the assay on A498 renal is above 100 µM; with MDA-MB-231 breast, 54.5 µM; in the assay on NCI-H522 lung it was 48.2 µM; in the assay on RPMI-8226 leukemia, 69.2 µM; in the assay with SK-MEL-28 melanoma, above 100 µM; in the assay on SNB-75 CNS, 95.2 µM. Moreover, the TGI is above 100 µM in the assay with SW-620 colon, 79.9 µM with U251 CNS, 29.8 µM in the assay with UACC-62 melanoma and above 100 µM with UO-31 renal.

Turning to `Cc1ccc(N)cc1[As]=[As]c1cc(N)ccc1C` (centres undefined), the GI50 with A498 renal was 1.29 µM; in the assay on MDA-MB-231 breast, 1.35 µM; in the assay on NCI-H522 lung, 0.122 µM; with RPMI-8226 leukemia, 1.07 µM; in the assay with SK-MEL-28 melanoma, 1.39 µM; in the assay with SNB-75 CNS it was 1.27 µM. In addition, the GI50 is 1.27 µM in the assay on SW-620 colon, 1.35 µM in the assay with U251 CNS, 1.51 µM in the assay with UACC-62 melanoma and 1.57 µM in the assay on UO-31 renal. The TGI in the assay with A498 renal amounted to 2.64 µM; in the assay on MDA-MB-231 breast, 2.82 µM; in the assay with NCI-H522 lung, 0.268 µM; in the assay with RPMI-8226 leukemia it was 4.45 µM; in the assay with SK-MEL-28 melanoma, 2.83 µM; in the assay with SNB-75 CNS, 2.59 µM. Besides, the TGI in the assay with SW-620 colon worked out at 3.2 µM; in the assay with U251 CNS, 2.69 µM; with UACC-62 melanoma it was 3 µM; in the assay on UO-31 renal it was 3.03 µM.

On to `COc1cccc(Nc2ncnc3cc(NC(=O)CCl)ccc23)c1`, for which the GI50 was 1.72 µM with A498 renal; 1.27 µM with MDA-MB-231 breast; 0.388 µM with NCI-H522 lung; 1.65 µM in the assay with SK-MEL-28 melanoma; 0.379 µM in the assay with SNB-75 CNS; 0.612 µM with SW-620 colon. In addition, the GI50 in the assay on U251 CNS was 0.33 µM; with UACC-62 melanoma it was 1.13 µM; with UO-31 renal it was 1.11 µM. Moreover, the TGI with A498 renal came out at 3.81 µM; in the assay with MDA-MB-231 breast, 2.6 µM; with NCI-H522 lung it was 1.63 µM; in the assay with SK-MEL-28 melanoma, 3.24 µM; with SNB-75 CNS, 2.28 µM; with SW-620 colon, 2.1 µM. In addition, the figures for the TGI with U251 CNS, in the assay with UACC-62 melanoma and in the assay with UO-31 renal were 1.12 µM, 2.48 µM and 2.43 µM, respectively.

Consider `O=C1/C(=C\c2ccc(F)cc2)CN(C(=O)c2ccccc2F)C/C1=C\c1ccc(F)cc1`, for which the GI50 with A498 renal was 2.02 µM; in the assay with MDA-MB-231 breast, 1.83 µM; in the assay on NCI-H522 lung, 1.61 µM; in the assay with RPMI-8226 leukemia, 0.137 µM; in the assay with SK-MEL-28 melanoma, 1.82 µM; in the assay on SNB-75 CNS, 2.64 µM. Further, the GI50 in the assay on SW-620 colon was 0.428 µM; in the assay on U251 CNS, 1.27 µM; with UACC-62 melanoma, 1.46 µM; with UO-31 renal, 1.49 µM. The TGI turned out to be 6.71 µM in the assay on A498 renal; 3.95 µM in the assay with MDA-MB-231 breast; 3.15 µM with NCI-H522 lung; 0.817 µM with RPMI-8226 leukemia; 3.36 µM in the assay with SK-MEL-28 melanoma; 10.9 µM in the assay on SNB-75 CNS. Also, the TGI in the assay on SW-620 colon was found to be 1.73 µM; in the assay with U251 CNS, 2.58 µM; with UACC-62 melanoma it was 3.05 µM; with UO-31 renal, 2.94 µM.

As to `C/C=C(\N=C=S)C(=O)OC1C(COC(C)=O)OC([C@]2(O)CC(=O)C(=N)C(C(=O)O)=C2O)C(O)C1OC1CC(OC)C(O)([C@@H](C)OC(=O)[C@@H](C)CC)C(C)O1` (some centres undefined), the TGI worked out at 62.5 µM in the assay on A498 renal; 51.7 µM in the assay on MDA-MB-231 breast; 5.32 µM in the assay with NCI-H522 lung; 7.19 µM in the assay on RPMI-8226 leukemia; 18.5 µM in the assay with SK-MEL-28 melanoma; 34.8 µM in the assay on SNB-75 CNS. Further, the TGI in the assay on SW-620 colon was 8.33 µM; in the assay on U251 CNS, 21.8 µM; in the assay with UACC-62 melanoma it was 10.3 µM; with UO-31 renal, 33.3 µM.

For the compound `COc1ccc(Cn2cc(COc3cc(/C=C/C(=O)c4cc(OC)c(OC)c(OC)c4)ccc3OC)nn2)cc1`, the GI50 in the assay on A498 renal was 12.8 µM; with MDA-MB-231 breast it was 4.62 µM; in the assay with NCI-H522 lung it was 1.69 µM; with RPMI-8226 leukemia, 2.58 µM; in the assay on SK-MEL-28 melanoma, 7.45 µM; in the assay with SW-620 colon, 3.63 µM. Also, the results for the GI50 in the assay with U251 CNS, in the assay with UACC-62 melanoma and in the assay on UO-31 renal were 3.8 µM, 4.19 µM and 4.71 µM, respectively. For the same compound, the TGI in the assay with A498 renal is above 100 µM; in the assay on MDA-MB-231 breast, above 100 µM; in the assay with NCI-H522 lung, 4.18 µM; in the assay on RPMI-8226 leukemia, 29.6 µM; in the assay on SK-MEL-28 melanoma, above 100 µM; in the assay on SW-620 colon, above 100 µM. Besides, the TGI in the assay with U251 CNS, with UACC-62 melanoma and with UO-31 renal was above 100 µM each time.

With `COC(=O)[C@]12CC[C@@H](C)[C@H](C)[C@@H]1C1=CC[C@@H]3[C@@]4(C)C(C=O)=C[C@@](C)(CO)[C@@H]4[C@H](O)C[C@@]3(C)[C@]1(C)CC2`, the GI50 with A498 renal was 6.37 µM; in the assay with MDA-MB-231 breast, 7.86 µM; in the assay on RPMI-8226 leukemia, 2.44 µM; with SK-MEL-28 melanoma it was 3.33 µM; in the assay with SNB-75 CNS it was 2.72 µM; in the assay on SW-620 colon, 4.23 µM. In addition, the values for the GI50 with U251 CNS, with UACC-62 melanoma and in the assay with UO-31 renal were 3.83 µM, 3.71 µM and 2.28 µM, respectively. Also, the TGI came to 19.4 µM in the assay with A498 renal; 22.3 µM in the assay on MDA-MB-231 breast; 7.74 µM in the assay with RPMI-8226 leukemia; 12.4 µM in the assay on SK-MEL-28 melanoma; 19.3 µM with SNB-75 CNS; 15.8 µM with SW-620 colon. Moreover, the TGI in the assay on U251 CNS came out at 13.8 µM; in the assay with UACC-62 melanoma, 14.8 µM; with UO-31 renal, 12.2 µM.
